Results as given in paper PMC9683399 (Journal of medicinal chemistry, 2022).

Biological target: BRD4 D2 (Homo sapiens, UniProt O60885)

In the case of Cc1sc2c(c1C)C(c1ccc(Cl)cc1)=N[C@@H](CC(=O)OC(C)(C)C)c1nnc(C)n1-2 [(+)-JQ1], the “binding to BRD4 D2 by ITC” value is reported as “potent binding”.
